Columns and labels:
Assay in all cases: Apoptosis assay (Annexin V/7-AAD), vincristine, monoculture or stromal co-culture
Type in all cases: cell-based, human
[1] = test system: 697 cells; conditions: vincristine 12.5 nM, 3 days
Procedure: (§1) […]: In vitro and in vivo effects of CD9 antibody on chemosensitivity of B-ALL cells. (FIG. 4A) B-ALL cell lines were treated with vincristine (VCR, 12.5 nM) for 3 days in monoculture or stromal co-culture. Apoptosis was monitored by Annexin V/7-AAD staining (n=4). (FIG. 4B) 697 cells were treated with VCR (12.5 nM) in stromal co-cultures for 3 days, in the presence of control IgG or anti-CD9 (ALB6, 10 μg/mL), and measured for apoptosis (n=4). (FIG. 4C) NOD/SCID mice were transplanted with 697 cells and treated with IgG alone, anti-CD9 alone (ALB6, 20 μg/mouse), IgG+VCR (0.8 mg/kg) or anti-CD9 + VCR. Antibodies and VCR were given twice a week for 2 weeks. Animal survival was analyzed (4-5 mice/group). Data are means±SEM. Statistics: (A and B) two-tailed, paired Student's t-test, (FIG. 4C) log-rank test. *P<0.05, **P<0.01.
(§2) B-ALL cell lines (1×10^5) were cultured with or without monolayers of BM stromal cells, and exposed to 10 μg/mL of control IgG or CD9 antibody (ALB6). Cells were then treated with vincristine (12.5 nM; Sigma Aldrich) for 3 days at 37° C. Apoptotic cell death was monitored using the Annexin V/7-AAD Apoptosis Detection Kit (BD Biosciences).

[2] = test system: RS4;11; conditions: vincristine 12.5 nM, 3 days
Procedure: as §1, §2

[3] = test system: Reh cells; conditions: vincristine 12.5 nM, 3 days; CD9low Reh
Procedure: as §1, §2

[4] = test system: SUP-B15; conditions: vincristine 12.5 nM, 3 days
Procedure: as §1, §2

With `CC[C@]1(O)C[C@H]2CN(CCc3c([nH]c4ccccc34)[C@@](C(=O)OC)(c3cc4c(cc3OC)N(C=O)[C@H]3[C@@](O)(C(=O)OC)[C@H](OC(C)=O)[C@]5(CC)C=CCN6CC[C@]43[C@@H]65)C2)C1` [vincristine] the “vincristine-mediated apoptotic cell death, stromal co-culture vs monoculture” value [1] was “reduced”, the “vincristine-mediated apoptotic cell death, stromal co-culture vs monoculture” value [2] was “reduced” and the “protective effect of stromal cells against vincristine-mediated apoptotic cell death” value [3] was “absent”. The “vincristine-mediated apoptotic cell death, stromal co-culture vs monoculture” value [4] was “reduced”.
